For 1 molecule, maximal tolerated dose results are on record in US20070167403A1, “Remedy for spinal canal stenosis” (priority 2003, published 2007).

The series has as its system rat. In kind it is in vivo. Particulars: intravenous administration. On the procedure: It has been confirmed that the compounds used in the present invention have low toxicity and are sufficiently safe for use as pharmaceutical preparations. For example, the maximal tolerated dose of the compound A (lysine salt of (5Z,9β,11α,13E)-17,17-propano-11,16-dihydroxy-9-chloro-20-norprosta-5,13-dienoic acid) in the compound represented by formula (I) used in the present invention was 30 mg/kg weight or more for rat intravenous administration.

Take `CCC1(C(O)CC=CC2C(O)CC(Cl)C2CC=CCCCC(=O)O)CCC1.NCCCCC(N)C(=O)O` (stereo not drawn) [Compound A, (5Z,9β,11α,13E)-17,17-propano-11,16-dihydroxy-9-chloro-20-norprosta-5,13-dienoic acid lysine salt]: the maximal tolerated dose is recorded as at least 30 mg/kg weight.
